Measurements: ChEMBL document CHEMBL4308841, “Synthesis, in vitro antiproliferative activity, and kinase inhibitory effects of pyrazole-containing diarylureas and diarylamides” (Eur J Med Chem, 2018)

What was measured:
OVCAR-5 [1] = experiment: Growth inhibition of human OVCAR5 cells assessed as cell growth at 100 uM incubated for 48 hrs by sulforhodamine B assay relative to control; format: functional; conditions: OVCAR-5, 48 h, read-out: Activity
SF-268 [2] = experiment: Growth inhibition of human SF268 cells incubated for 48 hrs by sulforhodamine B assay; format: functional, cell-based; conditions: SF-268, 48 h
IGROV-1 [3] = experiment: Growth inhibition of human IGROV1 cells assessed as cell growth at 100 uM incubated for 48 hrs by sulforhodamine B assay relative to control; format: functional; conditions: IGROV-1, 48 h, read-out: Activity
RXF 393 [4] = experiment: Growth inhibition of human RXF393 cells incubated for 48 hrs by sulforhodamine B assay; format: functional, cell-based; conditions: RXF 393, 48 h
SF-268 [5] = experiment: Growth inhibition of human SF268 cells assessed as cell growth at 0.1 uM incubated for 48 hrs by sulforhodamine B assay relative to control; format: functional; conditions: SF-268, 48 h, read-out: Activity
KM12 = experiment: Growth inhibition of human KM12 cells assessed as cell growth at 0.01 uM incubated for 48 hrs by sulforhodamine B assay relative to control; format: functional; conditions: KM12, 48 h, read-out: Activity
SNB-19 [6] = experiment: Growth inhibition of human SNB19 cells assessed as cell growth at 0.1 uM incubated for 48 hrs by sulforhodamine B assay relative to control; format: functional; conditions: SNB-19, 48 h, read-out: Activity
MCF7 = experiment: Growth inhibition of human MCF7 cells assessed as cell growth at 1 uM incubated for 48 hrs by sulforhodamine B assay relative to control; format: functional; conditions: MCF7, 48 h, read-out: Activity
PC-3 = experiment: Growth inhibition of human PC3 cells incubated for 48 hrs by sulforhodamine B assay; format: functional, cell-based; conditions: PC-3, 48 h
SNB-19 [7] = experiment: Growth inhibition of human SNB19 cells assessed as cell growth at 0.01 uM incubated for 48 hrs by sulforhodamine B assay relative to control; format: functional; conditions: SNB-19, 48 h, read-out: Activity
SN12C [8] = experiment: Growth inhibition of human SN12C cells assessed as cell growth at 0.01 uM incubated for 48 hrs by sulforhodamine B assay relative to control; format: functional; conditions: read-out: Activity
SR = experiment: Growth inhibition of human SR cells assessed as cell growth at 0.01 uM incubated for 48 hrs by sulforhodamine B assay relative to control; format: functional; conditions: read-out: Activity
IGROV-1 [9] = experiment: Growth inhibition of human IGROV1 cells incubated for 48 hrs by sulforhodamine B assay; format: functional, cell-based; conditions: IGROV-1, 48 h
OVCAR-3 [10] = experiment: Growth inhibition of human OVCAR3 cells incubated for 48 hrs by sulforhodamine B assay; format: functional, cell-based; conditions: OVCAR-3, 48 h
UACC-62 = experiment: Growth inhibition of human UACC62 cells assessed as cell growth at 1 uM incubated for 48 hrs by sulforhodamine B assay relative to control; format: functional; conditions: UACC-62, 48 h, read-out: Activity
OVCAR-3 [11] = experiment: Growth inhibition of human OVCAR3 cells assessed as cell growth at 100 uM incubated for 48 hrs by sulforhodamine B assay relative to control; format: functional; conditions: OVCAR-3, 48 h, read-out: Activity
NCI-H226 = experiment: Growth inhibition of human NCI-H226 cells assessed as cell growth at 100 uM incubated for 48 hrs by sulforhodamine B assay relative to control; format: functional; conditions: NCI-H226, 48 h, read-out: Activity
NCI-H23 = experiment: Growth inhibition of human NCI-H23 cells assessed as cell growth at 1 uM incubated for 48 hrs by sulforhodamine B assay relative to control; format: functional; conditions: NCI-H23, 48 h, read-out: Activity
NCI/ADR-RES = experiment: Growth inhibition of human NCI/ADR-RES cells assessed as cell growth at 100 uM incubated for 48 hrs by sulforhodamine B assay relative to control; format: functional; conditions: read-out: Activity
NCI-H322M = experiment: Growth inhibition of human NCI-H322M cells incubated for 48 hrs by sulforhodamine B assay; format: functional, cell-based
SNB-75 = experiment: Growth inhibition of human SNB75 cells assessed as cell growth at 1 uM incubated for 48 hrs by sulforhodamine B assay relative to control; format: functional; conditions: SNB-75, 48 h, read-out: Activity
HCC 2998 = experiment: Growth inhibition of human HCC2998 cells assessed as cell growth at 100 uM incubated for 48 hrs by sulforhodamine B assay relative to control; format: functional; conditions: HCC 2998, 48 h, read-out: Activity
U-251 = experiment: Growth inhibition of human U251 cells assessed as cell growth at 0.1 uM incubated for 48 hrs by sulforhodamine B assay relative to control; format: functional; conditions: U-251, 48 h, read-out: Activity
Hs-578T = experiment: Growth inhibition of human Hs578T cells assessed as cell growth at 1 uM incubated for 48 hrs by sulforhodamine B assay relative to control; format: functional; conditions: read-out: Activity
RXF 393 [12] = experiment: Growth inhibition of human RXF393 cells assessed as cell growth at 0.1 uM incubated for 48 hrs by sulforhodamine B assay relative to control; format: functional; conditions: RXF 393, 48 h, read-out: Activity
SF-539 = experiment: Growth inhibition of human SF539 cells assessed as cell growth at 1 uM incubated for 48 hrs by sulforhodamine B assay relative to control; format: functional; conditions: SF-539, 48 h, read-out: Activity
OVCAR-5 [13] = experiment: Growth inhibition of human OVCAR5 cells assessed as cell growth at 0.1 uM incubated for 48 hrs by sulforhodamine B assay relative to control; format: functional; conditions: OVCAR-5, 48 h, read-out: Activity
Malme-3M = experiment: Growth inhibition of human MALME-3M cells assessed as cell growth at 1 uM incubated for 48 hrs by sulforhodamine B assay relative to control; format: functional; conditions: read-out: Activity
UO-31 = experiment: Growth inhibition of human UO31 cells assessed as cell growth at 1 uM incubated for 48 hrs by sulforhodamine B assay relative to control; format: functional; conditions: UO-31, 48 h, read-out: Activity
SF-268 [14] = experiment: Growth inhibition of human SF268 cells assessed as cell growth at 1 uM incubated for 48 hrs by sulforhodamine B assay relative to control; format: functional; conditions: SF-268, 48 h, read-out: Activity
SN12C [15] = experiment: Growth inhibition of human SN12C cells assessed as cell growth at 1 uM incubated for 48 hrs by sulforhodamine B assay relative to control; format: functional; conditions: read-out: Activity
[16] = read-out: LC50 (the source's name)
[17] = read-out: pLC50 (the source's name) (converted)

With `O=C(Nc1cccc(-n2cc(-c3ccncc3)c(-c3cc(O)cc(Cl)c3)n2)c1)c1ccc(N2CCOCC2)c(C(F)(F)F)c1` the growth at 100 µM (OVCAR-5 [1]) was -47%, the GI50 (SF-268 [2]; read-out: GI50) was 5.51 µM and the CC50 (SF-268 [2]; [16]) was > 100 µM. The TGI (SF-268 [2]; read-out: TGI) was > 100 µM, the GI50 (SF-268 [2]; read-out: pGI50 (converted)) was 8.51 µM and the CC50 (SF-268 [2]; [17]) was > 100 µM. The TGI (SF-268 [2]; read-out: pTGI (converted)) was > 100 µM, the growth at 100 µM (IGROV-1 [3]) was 25% and the LC50 (RXF 393 [4]) was > 100 µM. For the same molecule, the GI50 (RXF 393 [4]; read-out: GI50) was 0.303 µM, the TGI (RXF 393 [4]; read-out: TGI) was 19 µM and the GI50 (RXF 393 [4]; read-out: pGI50 (converted)) was 0.302 µM. For the same molecule, the TGI (RXF 393 [4]; read-out: pTGI (converted)) was 1.91 µM, the growth at 0.1 µM (SF-268 [5]) was 101% and the growth at 0.01 µM (KM12) was 105%. The growth at 0.1 µM (SNB-19 [6]) was 105%, the growth at 1 µM (MCF7) was 82% and the IC50 (PC-3) was 1.09 µM. For the same molecule, the GI50 (PC-3; read-out: GI50) was 1.09 µM, the CC50 (PC-3; [16]) was > 100 µM and the TGI (PC-3; read-out: TGI) was 45.6 µM. The GI50 (PC-3; read-out: pGI50 (converted)) was 1.1 µM, the CC50 (PC-3; [17]) was > 100 µM and the TGI (PC-3; read-out: pTGI (converted)) was 45.7 µM. The growth at 0.01 µM (SNB-19 [7]) was 101%, the growth at 0.01 µM (SN12C [8]) was 94% and the growth at 0.01 µM (SR) was 92%. For the same molecule, the GI50 (IGROV-1 [9]; read-out: GI50) was 5.12 µM, the CC50 (IGROV-1 [9]; [16]) was > 100 µM and the TGI (IGROV-1 [9]; read-out: TGI) was > 100 µM. The GI50 (IGROV-1 [9]; read-out: pGI50 (converted)) was 5.13 µM, the CC50 (IGROV-1 [9]; [17]) was > 100 µM and the TGI (IGROV-1 [9]; read-out: pTGI (converted)) was > 100 µM. For the same molecule, the IC50 (OVCAR-3 [10]) was 7.2 µM, the GI50 (OVCAR-3 [10]; read-out: GI50) was 7.2 µM and the CC50 (OVCAR-3 [10]; [16]) was > 100 µM. For the same molecule, the TGI (OVCAR-3 [10]; read-out: TGI) was > 100 µM, the GI50 (OVCAR-3 [10]; read-out: pGI50 (converted)) was 7.24 µM and the CC50 (OVCAR-3 [10]; [17]) was > 100 µM. The TGI (OVCAR-3 [10]; read-out: pTGI (converted)) was > 100 µM, the growth at 1 µM (UACC-62) was 58% and the growth at 100 µM (OVCAR-3 [11]) was 30%. For the same molecule, the growth at 100 µM (NCI-H226) was 27%, the growth at 1 µM (NCI-H23) was 92% and the growth at 100 µM (NCI/ADR-RES) was 25%. The GI50 (NCI-H322M; read-out: GI50) was 2.53 µM, the CC50 (NCI-H322M; [16]) was > 100 µM and the TGI (NCI-H322M; read-out: TGI) was > 100 µM. The GI50 (NCI-H322M; read-out: pGI50 (converted)) was 2.82 µM, the CC50 (NCI-H322M; [17]) was > 100 µM and the TGI (NCI-H322M; read-out: pTGI (converted)) was > 100 µM. For the same molecule, the growth at 1 µM (SNB-75) was 45%, the growth at 100 µM (HCC 2998) was -28% and the growth at 0.1 µM (U-251) was 96%. It also gave a growth at 1 µM (Hs-578T) of 59%, a growth at 0.1 µM (RXF 393 [12]) of 85% and a growth at 1 µM (SF-539) of 58%. It also gave a growth at 0.1 µM (OVCAR-5 [13]) of 90%, a growth at 1 µM (Malme-3M) of 52% and a growth at 1 µM (UO-31) of 57%. It also gave a growth at 1 µM (SF-268 [14]) of 89% and a growth at 1 µM (SN12C [15]) of 58%.
